Data as given in patent US20050124645A1, “Methods and compositions for increasing CD4lymphocyte immune responsiveness” (priority 1998, published 2005).
“Also recorded” adds a separate entry of the source.

Legend:
[1] = molecular target: T1, protein tyrosine phosphatase (PTP), particularly PTP1B (Homo sapiens, UniProt P18031); settings: Pathak & Yi 2001; cited from earlier work
T1 sequence (P18031 1-435): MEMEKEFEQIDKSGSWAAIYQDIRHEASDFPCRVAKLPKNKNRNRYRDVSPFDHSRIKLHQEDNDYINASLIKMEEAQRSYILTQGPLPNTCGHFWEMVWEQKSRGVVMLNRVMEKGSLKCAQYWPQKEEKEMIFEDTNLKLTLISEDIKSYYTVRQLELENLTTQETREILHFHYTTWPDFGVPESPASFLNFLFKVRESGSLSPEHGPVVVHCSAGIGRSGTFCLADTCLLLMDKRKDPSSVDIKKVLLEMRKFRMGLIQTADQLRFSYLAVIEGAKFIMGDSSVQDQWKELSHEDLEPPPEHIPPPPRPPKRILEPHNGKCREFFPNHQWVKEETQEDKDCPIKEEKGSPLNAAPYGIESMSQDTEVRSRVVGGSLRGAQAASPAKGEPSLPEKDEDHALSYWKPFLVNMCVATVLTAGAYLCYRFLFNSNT

[2] = test system: JAK1; test: JAK1 activation in T cells stimulated through TCR/CD3 with or without prior CD4 ligation; format: cell-based, human; settings: CD4 ligation before TCR/CD3 stimulation; FIG. 5
From the text: Another Janus family kinase, JAK1, associates with the β chain of IL-2R and with the α chains of IL-4R and IL-7R, and is autophosphorylated upon activation (Johnston et al. (1994) Nature, 370:151; and Russell et al. (1994) Science, 270:797).

[3] = test system: JAK3; test: JAK3 expression and tyrosine phosphorylation (immunoprecipitation/Western blot) in TCR/CD3-stimulated CD4+ T cells with or without prior CD4 ligation; format: cell-based, human; settings: for reversal of gp120 or anti-CD4 induced inhibition of JAK3 expression and activation: 20 U/ml cytokine, FIG. 4
Procedure: In this experiment, the present inventors determined the activation status of JAK3 in CD4^+ T cells which were activated through the TCR subsequent to CD4 ligation.
Briefly, the purified CD4^+ T cells were incubated with or without gp120 and anti-gp120 antibody or anti-CD4 for 1 hour at 37° C. 3×10^6 cells per well were incubated at 37° C. in an anti-CD3 mAb coated (anti-CD3, OKT3, 50 μg/ml, ATCC) 12-well plate. Cells were harvested after various times and lysed in Tris-buffered saline (TBS) containing 1% NP-40, phosphatase inhibitors and protease inhibitors. After micro centrifugation, the post-nuclear lysates were used for immunoprecipitation with anti-JAK3 polyclonal antibody (anti-JAK3, 10 μl, Santa Cruz Biotechnology). The antibody-protein complex was pelleted using Sepharose-conjugated Protein A (Sigma) boiled in sample buffer (0.4% SDS, 3% glycerol and 1% β-mercaptoethanol (2-ME)) and the proteins were separated by 7.5% SDS-PAGE. The proteins were transferred to nitrocellulose membrane and immunoblotted with antiphosphotyrosine mAb (anti-P-Tyr, Ab-2, Oncogene Science) Positive protein bands were detected with horseradish peroxidase (HRP)-conjugated goat anti-mouse IgG (Jackson ImmunoResearch) and SuperSignal Substrate (SSS, Pierce). Membranes were stripped with 62.5 mM Tris-HCl, pH 6.7, containing 10 mM 2-ME, and 2% SDS, immunoblotted with anti-JAK3, and developed with HRP-conjugated protein A and SSS.
In some experiments, 1.5×10^6 cell equivalents of post-nuclear lysate were boiled with sample buffer and separated by 7.5% SDS-PAGE. Nitrocellulose membrane was immunoblotted with (anti-JAK3 and then stripped and immunoblotted with anti-actin mAb (anti-actin, Sigma), as described above. Optical density (O.D.) of positive bands was measured with the Stratagene Eagle Eye II.

[4] = molecular target: CD4 (Homo sapiens, UniProt P01730); settings: ligation of CD4; literature; cited from earlier work
[5] = test system: purified human CD4+ T cells; test: Anti-TCR induced proliferation ([3H]-thymidine) of CD4-ligated purified CD4+ T cells, rescue by cytokines; format: cell-based; settings: for reversal of inhibition of proliferation at higher cytokine concentrations: up to 80 U/ml, data not shown; for anti-TCR induced proliferative response of CD4-ligated T cells: 20 U/ml cytokine, gp120 or anti-CD4 ligation before plate-bound anti-TCR, 3 days, FIG. 1
Procedure: Heparinized venous blood from healthy adult human donors was separated on a Ficoll-Paque (Pharmacia Biotech) gradient to obtain lymphocytes. CD4^+ T cells were isolated by incubation with anti-CD8 mAb (OKT8, 20 Ag/ml, ATCC), followed by negative selection on goat anti-mouse IgG coated Immulan beads (Biotecx Laboratories).
Specifically, the purified CD4^+ T cells in balanced salts solution were incubated with or without gp120 (rgp120SF2, 10 μg/ml) and crosslinked with anti-gp120 antibody (1:250 dilution) or anti-CD4 mAb (anti-CD4, Leu-3α, 20 μg/ml) for 1 hr at 37° C.
Proliferation in response to plate-bound anti-TCR was determined as follows. Cells were washed, resuspended in RPMI-1640 culture media (GIBCO) supplemented with 10% fetal bovine serum (FBS, Gemini BioProducts) and 1×10^5 cells were added to triplicate wells of an anti-T cell receptor monoclonal antibody-coated (anti-TCR, BMA-031, 50 μg/ml) 96-well plate (Becton Dickinson). […] Culture plates were incubated for 3 days at 37° C. with 1 μCi/Well [^3H]-thymidine (NEN) present during the final 5 hours of culture. The cells were harvested and processed to determine ^3H-thymidine incorporation.

[6] = test system: IL-2R (α-chain, CD25); test: Activation-induced IL-2R (CD25) expression on CD4 primed T cells by flow cytometry; format: cell-based, human; settings: 20 U/ml cytokine; 24 hours; FIGS. 2A, 2B
Procedure: Expression of high affinity IL-2R (CD25) was also analyzed in CD4 primed T cells. To determine the expression of IL-2R (α-chain, CD25), the culture plates were set up as described in Example 1 and incubated at 37° C. for 24 hours. 2×10^5 cells were stained with FITC-conjugated anti-CD25 mAb (Pharmingen) and analyzed by flow cytometry (Coulter XL).

[7] = test system: JAK3; test: JAK3 expression (Western blot) in mock- or HIV-1 NL4-3-infected CD4+ T cell PHA blasts; format: cell-based, human; settings: 20 U/ml, 48 hours
Procedure: In this experiment, purified human CD4^+ T cells isolated as described above and activated with PHA for 3 days were infected for 4 days with a laboratory cloned strain of HIV-1, NL4-3. […] Cells were harvested and lysed with TBS/1% NP40 and analyzed on 7.5% SDS PAGE. Western blots using anti-JAK3 or anti-actin were prepared as described in Example 3.

[8] = test system: HIV-1 LTR; test: HIV-1 LTR-luciferase activity in resting CD4+ T cells; format: cell-based; settings: STAT5 expression vector or IL-2 for 1 hour, FIG. 17
From the text: Resting CD4^+ T cells were transfected with a construct containing luciferase under the control of HIV-1 LTR or a control luciferase construct (Dual-luciferase© Reporter Assay System, Promega, Madison, Wis.). The cells were also optionally transfected with an expression vector encoding STAT5. […] The luciferase activity of the cellular lysates was subsequently measured.

O.O.O.O.O.O.O.O.O.O=C([O-])[C@@H]1[O][Sb]2([O-])([O][Sb]34([OH])[O][C@H]([C@H](O)CO)[C@H]([O]3)[C@H](C(=O)[O-])[O]4)[O][C@H]([C@H](O)CO)[C@@H]1[O]2.[Na+].[Na+].[Na+] [pentostam, stibogluconate sodium]
cellular protein tyrosine phosphatase (PTP) inhibition, particularly PTP1B [1]: inhibit

gp120: HIV surface glycoprotein, crosslinked with anti-gp120 antibody
activation status of JAK1 [2]: did not significantly change
extent of inhibition of JAK3 expression and activation ([3]; CD4 ligation before anti-CD3 stimulation, FIG. 3A): incomplete
TCR/CD3-induced expression and phosphorylation of JAK3 ([3]; CD4 ligation before anti-CD3 stimulation, FIGS. 3A, 3B): inhibits
TCR/CD3-induced IL-2R expression, IL-2 production, and proliferation [4]: inhibit

IL-6: cytokine that binds to receptors on T cells which lack γc
reversal of inhibition of proliferation at higher cytokine concentrations [5]: did not reverse the inhibition of proliferation

IL-7: cytokine which binds to receptors on T cells having γc; Genzyme
activation-induced CD25 expression on CD4 primed T cells [6]: restored activation-induced CD25 expression
anti-TCR induced proliferative response of CD4-ligated T cells [5]: restored the proliferative response
reversal of gp120 or anti-CD4 induced inhibition of JAK3 expression and activation [3]: completely reversed
JAK3 expression in anti-CD3 stimulated HIV infected T cells ([7]; versus stimulated HIV-infected cells without cytokine): significantly increased; also recorded: increases JAK3 expression
JAK3 expression in anti-CD3 stimulated mock-infected T cells ([7]; versus stimulated cells without cytokine): increased JAK3 expression slightly

B1: STAT5: over-expressed from an expression vector encoding STAT5 (protein, UniProt P42229 1-794, looked up)
Signal transducer and …: MAGWIQAQQLQGDALRQMQVLYGQHFPIEVRHYLAQWIESQPWDAIDLDNPQDRAQATQLLEGLVQELQKKAEHQVGEDGFLLKIKLGHYATQLQKTYDRCPLELVRCIRHILYNEQRLVREANNCSSPAGILVDAMSQKHLQINQTFEELRLVTQDTENELKKLQQTQEYFIIQYQESLRIQAQFAQLAQLSPQERLSRETALQQKQVSLEAWLQREAQTLQQYRVELAEKHQKTLQLLRKQQTIILDDELIQWKRRQQLAGNGGPPEGSLDVLQSWCEKLAEIIWQNRQQIRRAEHLCQQLPIPGPVEEMLAEVNATITDIISALVTSTFIIEKQPPQVLKTQTKFAATVRLLVGGKLNVHMNPPQVKATIISEQQAKSLLKNENTRNECSGEILNNCCVMEYHQATGTLSAHFRNMSLKRIKRADRRGAESVTEEKFTVLFESQFSVGSNELVFQVKTLSLPVVVIVHGSQDHNATATVLWDNAFAEPGRVPFAVPDKVLWPQLCEALNMKFKAEVQSNRGLTKENLVFLAQKLFNNSSSHLEDYSGLSVSWSQFNRENLPGWNYTFWQWFDGVMEVLKKHHKPHWNDGAILGFVNKQQAHDLLINKPDGTFLLRFSDSEIGGITIAWKFDSPERNLWNLKPFTTRDFSIRSLADRLGDLSYLIYVFPDRPKDEVFSKYYTPVLAKAVDGYVKPQIKQVVPEFVNASADAGGSSATYMDQAPSPAVCPQAPYNMYPQNPDHVLDQDGEFDLDETMDVARHVEELLRRPMDSLDSRLSPPAGLFTSARGSLS
activity from the HIV-1 LTR (luciferase activity) [8]: increased activity

B2: IL-4: cytokine which binds to receptors on T cells having γc; R&D Systems (protein, UniProt P05112 25-153, looked up)
Interleukin-4: HKCDITLQEIIKTLNSLTEQKTLCTELTVTDIFAASKNTTEKETFCRAATVLRQFYSHHEKDTRCLGATAQQFHRHKQLIRFLKRLDRNLWGLAGLNSCPVKEANQSTLENFLERLKTIMREKYSKCSS
activation-induced CD25 expression on CD4 primed T cells [6]: restored activation-induced CD25 expression
anti-TCR induced proliferative response of CD4-ligated T cells [5]: restored the proliferative response
reversal of gp120 or anti-CD4 induced inhibition of JAK3 expression and activation [3]: completely reversed

B3: IL-12: cytokine that binds to receptors on T cells which lack γc (protein, UniProt P29459 23-219; P29460 23-328, looked up)
Interleukin-12 subunit alpha: RNLPVATPDPGMFPCLHHSQNLLRAVSNMLQKARQTLEFYPCTSEEIDHEDITKDKTSTVEACLPLELTKNESCLNSRETSFITNGSCLASRKTSFMMALCLSSIYEDLKMYQVEFKTMNAKLLMDPKRQIFLDQNMLAVIDELMQALNFNSETVPQKSSLEEPDFYKTKIKLCILLHAFRIRAVTIDRVMSYLNAS
Interleukin-12 subunit beta: IWELKKDVYVVELDWYPDAPGEMVVLTCDTPEEDGITWTLDQSSEVLGSGKTLTIQVKEFGDAGQYTCHKGGEVLSHSLLLLHKKEDGIWSTDILKDQKEPKNKTFLRCEAKNYSGRFTCWWLTTISTDLTFSVKSSRGSSDPQGVTCGAATLSAERVRGDNKEYEYSVECQEDSACPAAEESLPIEVMVDAVHKLKYENYTSSFFIRDIIKPDPPKNLQLKPLKNSRQVEVSWEYPDTWSTPHSYFSLTFCVQVQGKSKREKKDRVFTDKTSATVICRKNASISVRAQDRYYSSSWSEWASVPCS
reversal of inhibition of proliferation at higher cytokine concentrations [5]: did not reverse the inhibition of proliferation
